28 compounds from ChEMBL document CHEMBL1201862, “PubChem BioAssay data set” (2004) can be followed below.

The structures appear in SMILES notation.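 Dose response: 5 concentrations. Exposure: 48 h. Format: 96-well plates. Endpoint: linear interpolation; highest concentration if not reached. GI50: concentration for 50% inhibition of growth.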 Activity calls are given as the source filed them. No stated cut-off is given here; in the data, active = GI50 up to about 1.1 µM and inactive = higher.

Some test systems named below: RXF 631; KM-20L2; DLD-1; SNB-78; M19-MEL; HOP-18; MDA-N; T47D; BT-549.
What all share (assay): NCI anticancer screen, dose series, 48 h

As to `Cc1nc2ccc(C(F)(F)F)cc2nc1Nc1ccc(Cl)c(Cl)c1`, the GI50 in the assay on RXF 631 was 7.41 µM (inactive); in the assay with KM-20L2, 4.11 µM (inactive); with DLD-1 it was 9.42 µM (inactive); with SNB-78, 14.7 µM (inactive); in the assay with M19-MEL, 12.1 µM (inactive); in the assay with HOP-18, 15.3 µM (inactive).

With `Cc1cc(N(CCC#N)CCC#N)ccc1/N=N/c1cc(Cl)ccc1Cl`, the GI50 in the assay with DLD-1 is 10.6 µM (inactive); in the assay on SNB-78, 6.22 µM (inactive); in the assay on M19-MEL, 13.7 µM (inactive); in the assay with HOP-18, 10.2 µM (inactive).

For `CC1NC(=O)C2=C1C(N)=NC(=O)C2` (centres undefined), the GI50 in the assay with KM-20L2, in the assay with DLD-1, in the assay with SNB-78, in the assay with M19-MEL and in the assay with HOP-18 was > 100 µM (inactive) throughout.

`COc1cccc(/C=C/C(=O)c2sc(C(N)=S)nc2C)c1O`: the GI50 in the assay on RXF 631 is 31.1 µM (inactive); in the assay with KM-20L2, > 100 µM (inactive); with DLD-1, 28.3 µM (inactive); in the assay with SNB-78, > 100 µM (inactive); with M19-MEL, 34.4 µM (inactive); in the assay on HOP-18, > 41.5 µM (inactive).

Turning to `N#Cc1ccccc1C(Cl)(Cl)c1cnccn1`, the GI50 with DLD-1 was 47.3 µM (inactive); with SNB-78 it was 46.3 µM (inactive); in the assay with M19-MEL, 54.1 µM (inactive); in the assay with HOP-18, > 100 µM (inactive).

For `CC1CCC(=O)C(C(O)CC2CC(=O)N(c3ccccc3)C(=O)C2)C1` (centres undefined), the GI50 in the assay on KM-20L2, with DLD-1, in the assay with SNB-78, in the assay with M19-MEL and in the assay on HOP-18 was > 100 µM (inactive) each time.

With `CC1=C(C(=O)Nc2ccccc2C)C(c2ccc(Cl)c(Cl)c2)C(C(=O)Nc2ccccc2C)=C(C)N1`, the GI50 is 19.8 µM (inactive) in the assay on RXF 631; 16.1 µM (inactive) in the assay with KM-20L2; 27.9 µM (inactive) with DLD-1; 29.4 µM (inactive) in the assay with SNB-78; 19.7 µM (inactive) in the assay on M19-MEL; 22.9 µM (inactive) in the assay on HOP-18.

Turning to `CC1(C)N=C(N)N=C(N)N1c1ccc(CCCCc2ccc(S(=O)(=O)F)cc2Cl)c(Cl)c1`, the GI50 in the assay with MDA-N was 0.916 µM (active); in the assay with KM-20L2, 6.76 µM (inactive); with DLD-1, 1.57 µM (inactive); in the assay on SNB-78, 11.6 µM (inactive); with T47D, 10.5 µM (inactive); in the assay with BT-549 it was 5.26 µM (inactive). Besides, the GI50 in the assay with HOP-18 was 53.7 µM (inactive).

In the case of `Cc1cc(O)nc(NNC(C#N)c2ccc(O)cc2)n1` (centres undefined), the GI50 was > 100 µM (inactive) in the assay on KM-20L2; > 100 µM (inactive) in the assay on DLD-1; 83.8 µM (inactive) with SNB-78; > 100 µM (inactive) in the assay on M19-MEL; > 100 µM (inactive) in the assay on HOP-18.

For `CC(=O)n1nnc2ccc([N+](=O)[O-])cc21`, the GI50 with KM-20L2 is > 100 µM (inactive); with DLD-1, > 100 µM (inactive); in the assay on SNB-78 it was > 100 µM (inactive); with M19-MEL, > 100 µM (inactive); in the assay with HOP-18, 90.6 µM (inactive).

`CCOC(=O)/C=C1\Oc2ccccc2C1(C)O` (centres undefined): the GI50 with KM-20L2, in the assay on DLD-1, in the assay with SNB-78, in the assay with M19-MEL and in the assay on HOP-18 was > 100 µM (inactive) in each case.

`CCNCCCCNCC`: the GI50 in the assay on KM-20L2 is > 2090 µM (inactive); with DLD-1 it was > 3750 µM (inactive); in the assay on SNB-78, > 3750 µM (inactive); with M19-MEL, > 2930 µM (inactive); in the assay with HOP-18 it was > 37.5 µM (inactive).

Regarding `CC(=O)NC(CCCNC(=O)N(C)N=O)C(=O)NCc1ccccc1` (centres undefined), the GI50 in the assay on RXF 631, in the assay with KM-20L2, in the assay with DLD-1, in the assay on SNB-78 and in the assay on M19-MEL was > 100 µM (inactive) each time.

Consider `C#C[C@H](CCCC)OC(=O)N[C@H](C)c1ccccc1`, for which the GI50 is 62.1 µM (inactive) in the assay on RXF 631; 66.5 µM (inactive) in the assay on KM-20L2; 55.2 µM (inactive) in the assay on DLD-1; 70 µM (inactive) in the assay with SNB-78; 30.5 µM (inactive) in the assay with M19-MEL; > 100 µM (inactive) in the assay on HOP-18.

For the compound `COC(=O)/C=c1\s/c(=C\C(=O)OC)c2ccccc12`, the GI50 with RXF 631 is > 100 µM (inactive); in the assay with KM-20L2 it was > 100 µM (inactive); with DLD-1, 6.28 µM (inactive); with SNB-78, > 100 µM (inactive); with M19-MEL, > 100 µM (inactive); with HOP-18 it was > 100 µM (inactive).

With `CC(=O)C1CC(C)=CCC12C(=O)Nc1ccccc12` (centres undefined), the GI50 with RXF 631, in the assay on KM-20L2, with DLD-1 and with HOP-18 was > 100 µM (inactive) in each case.

In the case of `COc1ccc2oc(-c3cccnc3)cc(=O)c2c1`, the GI50 is 52.7 µM (inactive) in the assay on RXF 631, > 100 µM (inactive) in the assay with DLD-1 and > 100 µM (inactive) with M19-MEL.

In the case of `NC(=O)c1ccccc1NC(=O)C(=O)Nc1n[nH]c(N)n1`, the GI50 with KM-20L2, with DLD-1, in the assay with SNB-78, in the assay on M19-MEL and with HOP-18 was > 100 µM (inactive) in each case.

Consider `COc1ccc2c(c1)c(=O)c1ccccc1n2/C=C/C(=O)O`, for which the GI50 in the assay on KM-20L2 was 26.7 µM (inactive); with DLD-1, > 47 µM (inactive); in the assay with SNB-78, > 100 µM (inactive); in the assay with HOP-18, > 100 µM (inactive).

With `O=C(Nc1nc2ncn(CCO)c2c(=O)[nH]1)c1ccccc1`, the GI50 in the assay on KM-20L2, in the assay on DLD-1, in the assay with SNB-78, in the assay with M19-MEL and in the assay with HOP-18 was > 100 µM (inactive) throughout.

Take `CC1OC(n2cc(F)c(=O)[nH]c2=O)CCC1O` (centres undefined): the GI50 was 91.2 µM (inactive) with MDA-N; 95.1 µM (inactive) in the assay with KM-20L2; > 100 µM (inactive) with DLD-1; > 100 µM (inactive) in the assay with SNB-78; > 100 µM (inactive) in the assay with M19-MEL; > 100 µM (inactive) in the assay with T47D. Besides, the GI50 in the assay on BT-549 was > 100 µM (inactive); in the assay on HOP-18 it was 67.5 µM (inactive).

`NC(Cc1cc(I)c(O)c(I)c1)C(=O)O` (centres undefined): the GI50 with KM-20L2 was > 500 µM (inactive); in the assay on DLD-1, 418 µM (inactive); in the assay on SNB-78, > 500 µM (inactive); in the assay on M19-MEL it was > 323 µM (inactive); in the assay with HOP-18, 466 µM (inactive).

Take `CN[C@@H](C)[C@@H](NC)c1ccccc1`: the GI50 in the assay with RXF 631, in the assay on DLD-1, with SNB-78, in the assay on M19-MEL and with HOP-18 was > 100 µM (inactive) each time.

In the case of `CC(=O)Nc1cccc2[nH]c3ccccc3c(=O)c12`, the GI50 in the assay on RXF 631 was 27 µM (inactive); in the assay on KM-20L2, 21.1 µM (inactive); in the assay with DLD-1 it was 15.3 µM (inactive); in the assay on M19-MEL, 21.8 µM (inactive); in the assay with HOP-18, 6.82 µM (inactive).

`O=C(NCCNCCO)N/N=C/c1cccc([N+](=O)[O-])c1`: the GI50 in the assay on KM-20L2, in the assay on DLD-1, in the assay on SNB-78, in the assay with M19-MEL and in the assay with HOP-18 was > 100 µM (inactive) throughout.

Consider `[N-]=[N+]=CC(=O)CCC(NC(=O)C(CCC(=O)C=[N+]=[N-])NC(=O)CCC(N)C(=O)O)C(=O)O` (centres undefined), for which the GI50 in the assay on KM-20L2, in the assay with DLD-1, in the assay with SNB-78, with M19-MEL and in the assay with HOP-18 was > 100 µM (inactive) in each case.

Regarding `COc1ccc2c(c1)O[C@H]1c3ccc(O)cc3OC[C@@H]21`, the GI50 is 31.8 µM (inactive) with RXF 631; 31.6 µM (inactive) in the assay on KM-20L2; 34.8 µM (inactive) with DLD-1; 29.2 µM (inactive) in the assay with SNB-78; 18 µM (inactive) with M19-MEL; 93.5 µM (inactive) in the assay with HOP-18.

With `C/C(=N\N=C(/S)N1CCCCCC1)c1cccc[n+]1[O-]`, the GI50 in the assay with RXF 631 is 8.59 µM (inactive); in the assay on MDA-N, 6.47 µM (inactive); in the assay with KM-20L2 it was 0.839 µM (active); in the assay on DLD-1 it was 0.0279 µM (active); with SNB-78 it was 11 µM (inactive); in the assay with M19-MEL it was 8.39 µM (inactive). Also, the results for the GI50 in the assay with T47D, in the assay on BT-549 and in the assay with HOP-18 were 3.4 µM (inactive), 16 µM (inactive) and 18.2 µM (inactive), respectively.
